Peptide text beside a SMILES is read from it.
What was measured:
[1] = target: T1, Bcl-w ΔC29 (Homo sapiens, UniProt Q92843); assay: Alphascreen GST competition assay with biotinylated Bim BH3-26 peptide; format: binding; conditions: for binding affinity for Bcl-w ΔC29 compared to the linear 16-mer, in words: Examples 8 and 9; for decrease in binding affinity: relative to linear 16-mer
T1 sequence (Q92843 1-164 limits assumed): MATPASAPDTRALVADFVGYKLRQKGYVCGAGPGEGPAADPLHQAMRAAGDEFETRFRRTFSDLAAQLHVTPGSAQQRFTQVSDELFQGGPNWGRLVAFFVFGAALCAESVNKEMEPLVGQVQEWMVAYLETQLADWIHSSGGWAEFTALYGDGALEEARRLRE

[2] = target: GST tagged Bcl w delta C29 protein (UniProt Q92843); assay: competition assay; competitor: biotinylated Bim BH3 peptide

| Molecule | binding affinity for Bcl-w ΔC29 compared to the linear 16-mer, in words [1] | decrease in binding affinity [1] | IC50 [2] [nM] |
| --- | --- | --- | --- |
| CC[C@H](C)[C@H](NC(C)=O)C(=O)N[C@@H](CCCNC(=N)N)C(=O)N[C@H](C(=O)N[C@@H](C)C(=O)N[C@@H](CCC(N)=O)C(=O)N[C@@H](CCC(=O)O)C(=O)N[C@@H](CC(C)C)C(=O)N[C@@H](CCCNC(=N)N)C(=O)N[C@@H](CCCNC(=N)N)C(=O)N[C@H](C(=O)NCC(=O)N[C@@H](CC(=O)O)C(=O)N[C@@H](CCC(=O)O)C(=O)N[C@@H](Cc1ccccc1)C(=O)N[C@@H](CC(N)=O)C(=O)N[C@@H](C)C(N)=O)[C@@H](C)CC)[C@@H](C)CC [Q] (Ac-IRIAQELRRIGDEFNA-NH2) | drop in binding |  |  |
| CC[C@H](C)[C@H](NC(C)=O)C(=O)N[C@@H](Cc1c[nH]c2ccccc12)C(=O)N[C@H](C(=O)N[C@@H](C)C(=O)N[C@@H](CCC(N)=O)C(=O)N[C@@H](CCC(=O)O)C(=O)N[C@@H](CC(C)C)C(=O)N[C@@H](CCCNC(=N)N)C(=O)N[C@@H](CCCNC(=N)N)C(=O)N[C@H](C(=O)NCC(=O)N[C@@H](CC(=O)O)C(=O)N[C@@H](CCC(=O)O)C(=O)N[C@@H](Cc1ccccc1)C(=O)N[C@@H](CC(N)=O)C(=O)N[C@@H](CC(N)=O)C(N)=O)[C@@H](C)CC)[C@@H](C)CC [Peptide U] (Ac-IWIAQELRRIGDEFNN-NH2) |  | two-fold |  |
| CC[C@H](C)[C@H](NC(C)=O)C(=O)N[C@@H](Cc1c[nH]c2ccccc12)C(=O)N[C@H](C(=O)N[C@@H](C)C(=O)N[C@@H](CCC(N)=O)C(=O)N[C@@H](CCC(=O)O)C(=O)N[C@@H](CC(C)C)C(=O)N[C@@H](CCCNC(=N)N)C(=O)N[C@@H](CCCNC(=N)N)C(=O)N[C@@H](C)C(=O)NCC(=O)N[C@@H](CC(=O)O)C(=O)N[C@@H](CCC(=O)O)C(=O)N[C@@H](Cc1ccccc1)C(=O)N[C@@H](CC(N)=O)C(=O)N[C@@H](C)C(N)=O)[C@@H](C)CC [Peptide K] (Ac-IWIAQELRRAGDEFNA-NH2) |  | 3 fold |  |
| Peptide G (constrained) Ac-QAIAQZLRRIGDZFNA-NH2 |  |  | 2.4 |
| CC[C@H](C)[C@H](NC(C)=O)C(=O)N[C@@H](Cc1c[nH]c2ccccc12)C(=O)N[C@H](C(=O)N[C@@H](C)C(=O)N[C@@H](CCC(N)=O)C(=O)N[C@@H](CCC(=O)O)C(=O)N[C@@H](C)C(=O)N[C@@H](CCCNC(=N)N)C(=O)N[C@@H](CCCNC(=N)N)C(=O)N[C@H](C(=O)NCC(=O)N[C@@H](CC(=O)O)C(=O)N[C@@H](CCC(=O)O)C(=O)N[C@@H](Cc1ccccc1)C(=O)N[C@@H](CC(N)=O)C(=O)N[C@@H](C)C(N)=O)[C@@H](C)CC)[C@@H](C)CC [Peptide J] (Ac-IWIAQEARRIGDEFNA-NH2) |  | about 1000 fold |  |
| CC[C@H](C)[C@H](NC(=O)[C@H](CCCNC(=N)N)NC(=O)[C@H](CCCNC(=N)N)NC(=O)[C@H](CC(C)C)NC(=O)[C@H](CCC(=O)O)NC(=O)[C@H](CCC(N)=O)NC(=O)[C@H](C)NC(=O)[C@@H](NC(=O)[C@H](Cc1c[nH]c2ccccc12)NC(=O)[C@H](C)NC(C)=O)[C@@H](C)CC)C(=O)NCC(=O)N[C@@H](CC(=O)O)C(=O)N[C@@H](CCC(=O)O)C(=O)N[C@@H](Cc1ccccc1)C(=O)N[C@@H](CC(N)=O)C(=O)N[C@@H](C)C(N)=O [O, Ac-AWIAQELRRJGDEFNA-NH2] (Ac-AWIAQELRRIGDEFNA-NH2) | drop in binding |  |  |
| CC[C@H](C)[C@H](NC(C)=O)C(=O)N[C@@H](Cc1c[nH]c2ccccc12)C(=O)N[C@@H](C)C(=O)N[C@@H](C)C(=O)N[C@@H](CCC(N)=O)C(=O)N[C@@H](CCC(=O)O)C(=O)N[C@@H](CC(C)C)C(=O)N[C@@H](CCCNC(=N)N)C(=O)N[C@@H](CCCNC(=N)N)C(=O)N[C@H](C(=O)NCC(=O)N[C@@H](CC(=O)O)C(=O)N[C@@H](CCC(=O)O)C(=O)N[C@@H](Cc1ccccc1)C(=O)N[C@@H](CC(N)=O)C(=O)N[C@@H](C)C(N)=O)[C@@H](C)CC [Peptide I] (Ac-IWAAQELRRIGDEFNA-NH2) | slight decrease in binding affinity | 100 fold |  |
| CC[C@H](C)[C@H](NC(C)=O)C(=O)N[C@@H](Cc1c[nH]c2ccccc12)C(=O)N[C@H](C(=O)N[C@@H](C)C(=O)N[C@@H](CCC(N)=O)C(=O)N[C@@H](CCC(=O)O)C(=O)N[C@@H](CC(C)C)C(=O)N[C@@H](CCCNC(=N)N)C(=O)N[C@@H](CCCNC(=N)N)C(=O)N[C@H](C(=O)NCC(=O)N[C@@H](CC(=O)O)C(=O)N[C@@H](CCC(=O)O)C(=O)N[C@@H](Cc1ccccc1)C(=O)N[C@@H](C)C(=O)N[C@@H](C)C(N)=O)[C@@H](C)CC)[C@@H](C)CC [Peptide S] (Ac-IWIAQELRRIGDEFAA-NH2) | only slight, if any, loss of binding affinity |  |  |
| CC[C@H](C)[C@H](NC(C)=O)C(=O)N[C@@H](C)C(=O)N[C@H](C(=O)N[C@@H](C)C(=O)N[C@@H](CCC(N)=O)C(=O)N[C@@H](CCC(=O)O)C(=O)N[C@@H](CC(C)C)C(=O)N[C@@H](CCCNC(=N)N)C(=O)N[C@@H](CCCNC(=N)N)C(=O)N[C@H](C(=O)NCC(=O)N[C@@H](CC(=O)O)C(=O)N[C@@H](CCC(=O)O)C(=O)N[C@@H](Cc1ccccc1)C(=O)N[C@@H](CC(N)=O)C(=O)N[C@@H](C)C(N)=O)[C@@H](C)CC)[C@@H](C)CC [P] (Ac-IAIAQELRRIGDEFNA-NH2) | drop in binding |  |  |
| CC[C@H](C)[C@H](NC(C)=O)C(=O)N[C@@H](Cc1c[nH]c2ccccc12)C(=O)N[C@H](C(=O)N[C@@H](C)C(=O)N[C@@H](CCC(N)=O)C(=O)N[C@@H](CCC(=O)O)C(=O)N[C@@H](CC(C)C)C(=O)N[C@@H](CCCNC(=N)N)C(=O)N[C@@H](CCCNC(=N)N)C(=O)N[C@H](C(=O)NCC(=O)N[C@@H](CC(=O)O)C(=O)N[C@@H](CCC(=O)O)C(=O)N[C@@H](C)C(=O)N[C@@H](CC(N)=O)C(=O)N[C@@H](C)C(N)=O)[C@@H](C)CC)[C@@H](C)CC [Peptide L] (Ac-IWIAQELRRIGDEANA-NH2) |  | 1,000 fold |  |
| Peptide T (linear) Ac-IWIAQELCitCitIGDEFNA-NH2 |  |  | 20 |
| Ac-IWIAQQLRRIGDQFNA-NH2 [Peptide H (linear) Ac-…-NH2] |  |  | 3.3 |
| Ac-IFIAQELRRIGDEFNA-NH2 [Peptide N (linear) Ac-…-NH2] |  |  | 11 |
| Ac-IAIAQELRRIGDEFNA-NH2 [Peptide P (linear) Ac-…-NH2] |  |  | 42 |
| Ac-IRIAQELRRIGDEFNA-NH2 [Peptide Q (linear) Ac-…-NH2] |  |  | 17 |
| Ac-IWIAQELRRIGDEFAA-NH2 [Peptide S (linear) Ac-…-NH2] |  |  | 3.3 |
| Ac-REIGAQLRRMADDLNA-NH2 [Puma peptide Ac-…-NH2] |  |  | 52 |
| Ac-VQIARKLQAIADQFHR-NH2 [Bmf peptide Ac-…-NH2] |  |  | 0.25 |

Source: patent US20070197430A1, “Conjugates And Therapeutic Uses Thereof” (priority 2004, published 2007)
